Experimental data taken from US20240335443A1, “IMIDAZOLOPYRIDAZINE OR PYRAZOLOPYRIMIDINE COMPOUNDS AND COMPOSITIONS” (Anrui Biomedical Technology (Guangzhou) Co., Ltd., priority 2021, published 2024).
Read-outs that look alike come from different tables or passages of the source.

Experiments:
[1] = target: T1, N-terminal His-tagged TYK2 pseudokinase domain (Homo sapiens, UniProt P29597); assay: TYK2 JH2 domain SPA binding assay; settings: displacement of H3 probe (20 nM), 30 min room temperature; class symbols
T1 construct: the N-terminal His-tagged TYK2 pseudokinase domain; His (N); purchased Pharmaron
Experimental: TYK2 JH2 Domain Binding Assay
After incubating at room temperature for 30 min, the inhibition was calculated by the displacement of [3H] 3 binding as determined by scintillation counting. Dose-response curves were generated to determine the concentration required to inhibit H3 probe binding by […] (IC50).

[2] = tested on: IL-23 induced STAT3 in HEK-Blue™ IL-23 cells; assay: IL-23 induced STAT3 QUANTI-Blue reporter assay in HEK-Blue IL-23 cells; type: cell-based; settings: IL-23 0.1 ng/mL, SEAP levels, read-out: IL23 reporter assay (IC50 nM)
Experimental: Biological Example 2. IL-23 Induced STAT3 QUANTI-Blue in HEK-Blue™ IL-23 Cells
HEK-Blue™ IL-23 cells were prepared at 2×10^5 cells/ml for adding 5000 cell/well and incubate plates containing compounds+cells for 1 hour at 37° C. Prepare IL-23 (treatment at final conc. 0.1 ng/mL) during incubation and add 2 ul per well of prepared cytokine in media to appropriate wells. The plate is incubated for overnight at 37° C. The next day, QUANTI-Blue solution is prepared. 18 ul of QUANTI-Blue solution per well is added into a new 384-well clear flat bottom plate, then add 2 ul of induced and treated HEK-Blue cell supernatant from overnight plate. Incubate the plate at 37° C. for 2 hours and determine SEAP levels.

[3] = HEK-Blue IL-23, HEK-Blue IL-23 cells, class symbols
[4] = HEK-Blue IL-23 cells, class symbols

T1 sequence (P29597 589-875 limits assumed): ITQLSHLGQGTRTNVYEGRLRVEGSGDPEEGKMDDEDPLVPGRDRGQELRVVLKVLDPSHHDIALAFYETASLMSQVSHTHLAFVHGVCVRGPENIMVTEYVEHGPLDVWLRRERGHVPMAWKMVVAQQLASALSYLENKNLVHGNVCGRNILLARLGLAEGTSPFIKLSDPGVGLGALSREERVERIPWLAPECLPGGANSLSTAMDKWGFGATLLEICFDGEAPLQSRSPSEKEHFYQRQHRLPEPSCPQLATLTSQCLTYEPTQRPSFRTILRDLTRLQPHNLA

CNc1cc(Nc2cccn(C3CC4CCOC43)c2=O)nn2c(C(=O)N[C@@H]3C[C@@H]3F)cnc12 (single isomer, unassigned) [Compound 105a]
IC50 [1]: 100 to 1000 nM | IC50 [2, 3]: 10 to 100 nM

[2H]C([2H])([2H])Nc1cc(Nc2cccn(C3CCCC4(COC4)C3)c2=O)nn2c(C(=O)N[C@@H]3C[C@@H]3F)cnc12 (single isomer, unassigned) [Compound 75b]
IC50 [1]: 10 to 100 nM | IC50 [2, 4]: 10 to 100 nM

CNc1cc(Nc2cccn(-c3ccn(C)n3)c2=O)nc2c(C(=O)N[C@@H]3C[C@H]4CCO[C@H]43)cnn12 (racemic) [Compound 51]
IC50 [1]: 100 to 1000 nM | IC50 [2, 3]: 10 to 100 nM

CNc1cc(Nc2cccc(N3CCCC3=O)n2)nn2c(C(=O)NC(C)c3ncco3)cnc12 (racemic) [Compound 28]
IC50 [1]: 10 to 100 nM | IC50 [2, 3]: < 10 nM

[2H]C([2H])([2H])Nc1cc(Nc2cccn(C3C[C@H]4CC[C@@H](C3)O4)c2=O)nc2c(C(=O)N[C@@H]3C[C@H]4CCO[C@H]43)cnn12 (stereo partly drawn) [Compound 77]
IC50 [2, 3]: 10 to 100 nM

[2H]C([2H])([2H])Nc1cc(Nc2cccn(C3CC4OCCC43)c2=O)nn2c(C(=O)N[C@@H]3C[C@@H]3F)cnc12 (single isomer, unassigned) [Compound 101b]
IC50 [1]: 10 to 100 nM | IC50 [2, 4]: 10 to 100 nM

CNc1cc(Nc2cccn(CC3CCCO3)c2=O)nn2c(C(=O)N[C@@H]3C[C@H]4CCO[C@H]43)cnc12 (single isomer, unassigned) [Compound 62a]
IC50 [1]: 100 to 1000 nM | IC50 [2, 3]: 10 to 100 nM

[2H]C([2H])([2H])Nc1cc(Nc2cccn(C3CC4OCCC43)c2=O)nn2c(C(=O)N[C@@H]3C[C@@H]3F)cnc12 (single isomer, unassigned) [Compound 101a]
IC50 [1]: 10 to 100 nM | IC50 [2, 3]: 10 to 100 nM

[2H]C([2H])([2H])Nc1cc(Nc2cccn(-c3ccn(C)n3)c2=O)nn2c(C(=O)N[C@@H]3C[C@@H]3F)cnc12 [Compound 57]
IC50 [1]: 10 to 100 nM | IC50 [2, 3]: 10 to 100 nM

CNc1cc(Nc2cccc3c2OCCC3)nn2c(C(=O)NC3CCn4ccnc43)cnc12 (stereo not drawn) [Compound 6, 6-(chroman-8-ylamino)-N-(6,7-dihydro-5H-pyrrolo[1,2-a]imidazol-7-yl)-8-(methylamino)imidazo[1,2-b]pyridazine-3-carboxamide]
IC50 [1]: < 10 nM | IC50 [2, 3]: < 10 nM

CNc1cc(Nc2cccn(-c3ccccn3)c2=O)nc2c(C(=O)N[C@@H]3C[C@H]4CCO[C@H]43)cnn12 (racemic) [Compound 43]
IC50 [1]: 10 to 100 nM | IC50 [2, 3]: 10 to 100 nM

CNc1cc(Nc2cccn([C@H]3C[C@H](OC)C3)c2=O)nn2c(C(=O)N[C@@H]3C[C@H]4CCO[C@H]43)cnc12 [Compound 82]
IC50 [1]: 10 to 100 nM | IC50 [2, 3]: < 10 nM

CNc1cc(Nc2cccn(-c3ccn(C)n3)c2=O)nn2c(C(=O)N[C@H]3C[C@@H]4CCO[C@@H]43)cnc12 [Compound 3b, N-((1S,5R,7S)-2-oxabicyclo[3.2.0]heptan-7-yl)-6-((1-(1-methyl-1H-pyrazol-3-yl)-2-oxo-1,2-dihydropyridin-3-yl)amino)-8-(methylamino)imidazo[1,2-b]pyridazine-3-carboxamide]
IC50 [2, 3]: 100 to 1000 nM

[2H]C([2H])([2H])Nc1cc(Nc2cccn(C3C[C@H]4CC[C@@H](C3)O4)c2=O)nn2c(C(=O)N[C@@H]3C[C@H]4CCO[C@H]43)cnc12 (stereo partly drawn) [Compound 78]
IC50 [2, 3]: 10 to 100 nM

CNc1cc(Nc2cccn(-c3cc(C)on3)c2=O)nn2c(C(=O)NC3C[C@H]4CCOC34)cnc12 (mixture of isomers) [Compound 56]
IC50 [2, 3]: 10 to 100 nM

CNc1cc(Nc2cccn(-c3ccn(C)n3)c2=O)nc2c(C(=O)NC3C[C@@H]4CCOC34)cnn12 (mixture of isomers) [Compound 50]
IC50 [2, 3]: 100 to 1000 nM

CNc1cc(Nc2cccn(-c3ccccn3)c2=O)nn2c(C(=O)N[C@@H]3C[C@H]4CCO[C@H]43)cnc12 [Compound 2, N-((1R,5S,7R)-2-oxabicyclo[3.2.0]heptan-7-yl)-8-(methylamino)-6-((2-oxo-2H-[1,2′-bipyridin]-3-yl)amino)imidazo[1,2-b]pyridazine-3-carboxamide]
IC50 [2, 3]: 10 to 100 nM

[2H]C([2H])([2H])NC(=O)c1nnc(NC(=O)C2CC2)cc1Nc1cccc(-c2ncn(C)n2)c1OC [BMS-986165, reference compound]
IC50 ([2]; HEK-Blue IL-23 cells, numeric value (control)): 5.93 nM

[2H]C([2H])([2H])Nc1cc(Nc2cccn(-c3ccccn3)c2=O)nn2c(C(=O)N[C@@H]3C[C@@H]3F)cnc12 [Compound 39]
IC50 [2, 4]: < 10 nM

[2H]C([2H])([2H])Nc1cc(Nc2cccn(C3CCC4(CC3)COC4)c2=O)nc2c(C(=O)N[C@@H]3C[C@@H]3F)cnn12 [Compound 74]
IC50 [2, 3]: 10 to 100 nM

CNc1cc(Nc2cccn(-c3ccn(C)n3)c2=O)nn2c(C(=O)N[C@@H]3C[C@H]4CCO[C@H]43)cnc12 [Compound 3a, N-((1R,5S,7R)-2-oxabicyclo[3.2.0]heptan-7-yl)-6-((1-(1-methyl-1H-pyrazol-3-yl)-2-oxo-1,2-dihydropyridin-3-yl)amino)-8-(methylamino)imidazo[1,2-b]pyridazine-3-carboxamide]
IC50 [2, 3]: < 10 nM

[2H]C([2H])([2H])Nc1cc(Nc2cccn(-c3ccccn3)c2=O)nn2c(C(=O)N[C@@H]3C[C@H]4CCO[C@H]43)cnc12 [Compound 4a, N-((1R,5S,7R)-2-oxabicyclo[3.2.0]heptan-7-yl)-8-((methyl-d3)amino)-6-((2-oxo-2H-[1,2′-bipyridin]-3-yl)amino)imidazo[1,2-b]pyridazine-3-carboxamide]
IC50 [2, 3]: 10 to 100 nM

[2H]C([2H])([2H])Nc1cc(Nc2cccn(C3CCC4(CC3)COC4)c2=O)nc2c(C(=O)N[C@@H]3C[C@H]4CCO[C@H]43)cnn12 [Compound 67]
IC50 [2, 3]: 10 to 100 nM

CNc1cc(Nc2cccn(-c3ccn(C)n3)c2=O)nc2c(C(=O)NC(C)c3ncco3)cnn12 (racemic) [Compound 48]
IC50 [2, 3]: 10 to 100 nM

CNc1cc(Nc2cccn(-c3ccccn3)c2=O)nc2c(C(=O)NC(C)c3ncco3)cnn12 (single isomer, unassigned) [Compound 36a]
IC50 [2, 4]: ≥ 1000 nM

[2H]C([2H])([2H])Nc1cc(Nc2cccc(N3CCCC3=O)n2)nn2c(C(=O)NC3C[C@@H]4CCOC34)cnc12 (mixture of isomers) [Compound 30]
IC50 [2, 3]: 10 to 100 nM

[2H]C([2H])([2H])Nc1cc(Nc2cccn([C@H]3CC[C@@H](OC)CC3)c2=O)nn2c(C(=O)N[C@@H]3C[C@@H]3F)cnc12 [Compound 71]
IC50 [2, 3]: 10 to 100 nM

[2H]C([2H])([2H])Nc1cc(Nc2cccn(-c3ccccn3)c2=O)nn2c(C(=O)N[C@H]3C[C@@H]4CCO[C@@H]43)cnc12 [Compound 4b, N-((1S,5R,7S)-2-oxabicyclo[3.2.0]heptan-7-yl)-8-((methyl-d3)amino)-6-((2-oxo-2H-[1,2′-bipyridin]-3-yl)amino)imidazo[1,2-b]pyridazine-3-carboxamide]
IC50 [2, 3]: ≥ 1000 nM

[2H]C([2H])([2H])Nc1cc(Nc2cccn([C@H]3CC[C@H](OC([2H])([2H])[2H])CC3)c2=O)nn2c(C(=O)N[C@@H]3C[C@H]4CCO[C@H]43)cnc12 [Compound 11, N-((1R,5S,7R)-2-oxabicyclo[3.2.0]heptan-7-yl)-6-((1-((1r,4R)-4-(methoxy-d3)cyclohexyl)-2-oxo-1,2-dihydropyridin-3-yl)amino)-8-((methyl-d3)amino)imidazo[1,2-b]pyridazine-3-carboxamide]
IC50 [1]: < 10 nM

CNc1cc(Nc2cccn(-c3nn(C)cc3F)c2=O)nn2c(C(=O)N[C@@H]3C[C@@H]3F)cnc12 [Compound 60]
IC50 [2, 3]: 10 to 100 nM

CNc1cc(Nc2cccn(C3CC(C)(OC)C3)c2=O)nn2c(C(=O)N[C@@H]3C[C@H]4CCO[C@H]43)cnc12 (single isomer, unassigned) [Compound 92b]
IC50 [2, 4]: 10 to 100 nM
